SMILES strings stand for the structures.

One test concerns the target T1, Nuclear factor erythroid 2-related factor 2 (Homo sapiens) (UniProt Q16236).
T1 sequence (whole entry): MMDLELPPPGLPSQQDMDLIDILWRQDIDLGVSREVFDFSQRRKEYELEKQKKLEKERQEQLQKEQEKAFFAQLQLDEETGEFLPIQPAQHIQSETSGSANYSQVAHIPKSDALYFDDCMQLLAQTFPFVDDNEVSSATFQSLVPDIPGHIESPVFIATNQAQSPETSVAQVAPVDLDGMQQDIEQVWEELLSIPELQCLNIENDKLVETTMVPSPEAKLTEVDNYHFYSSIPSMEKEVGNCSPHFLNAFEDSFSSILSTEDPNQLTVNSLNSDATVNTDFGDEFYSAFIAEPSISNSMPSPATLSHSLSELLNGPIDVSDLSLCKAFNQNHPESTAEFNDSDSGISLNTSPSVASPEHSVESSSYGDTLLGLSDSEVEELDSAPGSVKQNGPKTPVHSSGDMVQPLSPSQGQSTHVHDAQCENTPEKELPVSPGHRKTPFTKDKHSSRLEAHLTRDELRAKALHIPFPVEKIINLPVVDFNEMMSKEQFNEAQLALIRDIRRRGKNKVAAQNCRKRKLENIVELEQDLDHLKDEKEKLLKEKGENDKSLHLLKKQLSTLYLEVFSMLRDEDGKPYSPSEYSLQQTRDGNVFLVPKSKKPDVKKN
The test is described as follows: Activation of Nrf2 (unknown origin) expressed in human HepG2 cells after 5 hrs by ARE-driven luciferase reporter gene assay relative to control. Format: cell-based.
Compound `Fc1cccc(/C=C/c2ccccc2)c1` yielded a fold change (FC) of 4.9.
Same read-out and setting: for `COc1cccc(/C=C/c2cccc(F)c2)c1` the value was 15.1; for `COc1ccc(OC)c(/C=C/c2ccc(OC)cc2OC)c1`, 12.9; for `Fc1ccccc1/C=C/c1ccccc1`, 10.7.
The same measure, in the same setting: for `COc1ccc(/C=C/c2ccccc2Cl)cc1` the value was 17.8; for `Cc1ccc(/C=C/c2ccc(F)cc2F)cc1`, 13.5.
Still for that read-out and setting: for `C[S+]([O-])CCCCN=C=S` (stereo not drawn) the value was 12.4; for `COc1cccc(/C=C/c2cccc(F)c2)c1OC`, 19.4; for `COc1cccc(/C=C/c2ccccc2)c1OC`, 25.4.
For the compound `COc1ccc(/C=C/c2cccc(F)c2)cc1OC`, the fold change (FC) turned out to be 5.9.
Still for that read-out and setting: for `COc1ccc(/C=C/c2ccc(F)cc2)cc1OC` the value was 1.6; for `COc1cccc(/C=C/c2ccc(F)cc2)c1OC`, 16.9; for `COc1ccccc1/C=C/c1ccccc1`, 23.1.
Still for that read-out and setting: for `COc1ccc(/C=C/c2cc(F)ccc2F)cc1` the value was 17; for `COc1ccc(/C=C/c2ccccc2F)cc1`, 14.9; for `Fc1ccc(/C=C/c2ccccc2)cc1`, 4.8.
Same read-out and setting: for `Fc1ccccc1/C=C/c1ccccc1F` the value was 13.9.
Take `Fc1ccc(/C=C/c2cc(F)ccc2F)cc1`: the fold change (FC) was determined as 11.2.
In the case of `COc1ccc(/C=C/c2ccc(OC)cc2OC)cc1`, the fold change (FC) worked out at 15.6.
Consider `Fc1cccc(/C=C/c2ccc(F)c(F)c2)c1`, for which the fold change (FC) came to 12.2.
`Fc1ccc(/C=C/c2ccccc2F)cc1` displayed a fold change (FC) of 12.7.
Still for that read-out and setting: for `Fc1ccc(/C=C/c2ccccc2F)c(F)c1` the value was 5; for `COc1ccc(/C=C/c2ccc(F)cc2)cc1`, 1.7; for `Oc1ccc(/C=C/c2cc(O)cc(O)c2)cc1`, 3.2.
Same read-out and setting: for `O=[N+]([O-])c1cccc(/C=C/c2ccccc2)c1` the value was 18.6.
On the same count and under the same terms, for `Fc1ccccc1/C=C/c1ccc(Cl)cc1` the value was 5.3; for `Oc1ccc(/C=C/c2ccccc2F)cc1`, 13.4.
In turn, `COc1ccc(/C=C/c2cccc(F)c2)cc1` registered a fold change (FC) of 3.6.
The same measure, in the same setting: for `COc1cccc(/C=C/c2ccccc2OC)c1` the value was 29.2; for `COc1ccc(OC)c(/C=C/c2ccc(F)cc2)c1`, 10.7; for `Fc1ccc(/C=C/c2ccc(F)cc2F)cc1`, 16.8.
The same measure, in the same setting: for `Fc1cccc(/C=C/c2cc(F)ccc2F)c1` the value was 10.7; for `COc1cccc(/C=C/c2ccc(C(F)(F)F)cc2)c1OC`, 65.5.
With `Cc1ccc(/C=C/c2cccc([N+](=O)[O-])c2)cc1`, the fold change (FC) was 11.9.
Take `COc1cccc(/C=C/c2ccccc2F)c1`: the fold change (FC) stood at 14.4.
The same measure, in the same setting: for `Cc1ccc(/C=C/c2ccc(F)c(F)c2)cc1` the value was 10.2.
The compound `Cc1ccc(/C=C/c2cccc(C(F)(F)F)c2)cc1` showed a fold change (FC) of 19.2.
On the same count and under the same terms, for `COc1ccccc1/C=C/c1ccccc1F` the value was 18.4; for `Cc1ccc(/C=C/c2ccc(F)cc2)cc1`, 1.1.
Same read-out and setting: for `COc1ccc(/C=C/c2cccc([N+](=O)[O-])c2)cc1` the value was 69.
Regarding `Fc1ccc(F)c(/C=C/c2ccccc2F)c1`, the fold change (FC) was found to be 22.3.
Still for that read-out and setting: for `COc1cccc(/C=C/c2ccc(F)cc2)c1` the value was 4.4; for `Fc1cccc(/C=C/c2ccc(F)cc2F)c1`, 8.2.
The same measure, in the same setting: for `Cc1ccc(/C=C/c2ccccc2F)cc1` the value was 10.1.
Same read-out and setting: for `Fc1ccccc1/C=C/c1c(F)cccc1F` the value was 21.2; for `COc1ccc(/C=C/c2ccc(O)c(OC)c2)cc1`, 27.7.
For the compound `Cc1ccc(/C=C/c2cccc(F)c2)cc1`, the fold change (FC) was determined as 4.7.
Same read-out and setting: for `Fc1ccc(/C=C/c2cccc(F)c2)cc1` the value was 4.5; for `COc1cccc(/C=C/c2ccc(C(C)C)cc2)c1OC`, 33.9.
Same read-out and setting: for `COc1cccc(/C=C/c2ccc(C)cc2)c1OC` the value was 16.1.
The same measure, in the same setting: for `Fc1cccc(F)c1/C=C/c1ccccc1` the value was 11.4; for `Fc1cccc(/C=C/c2cccc(F)c2)c1`, 7.

In the next test the target is T1, Nuclear factor erythroid 2-related factor 2 (Homo sapiens). The test is described as follows: Activation of Nrf2 (unknown origin) expressed in human HepG2 cells at 15 uM after 5 hrs by ARE-driven luciferase reporter gene assay relative to control. Format: cell-based.
For the compound `COc1ccc(/C=C/c2cccc(O)c2)cc1`, the fold change (FC) was determined as 28.1.
On the same count and under the same terms, for `COc1cccc(/C=C/c2cc(OC)ccc2OC)c1` the value was 15.7; for `COc1ccc(/C=C/c2ccc(F)c(F)c2)cc1`, 4.6.
Still for that read-out and setting: for `Fc1ccc(/C=C/c2ccccc2F)cc1F` the value was 11.5.
Still for that read-out and setting: for `Fc1ccc(/C=C/c2ccc(F)c(F)c2)cc1` the value was 7; for `Fc1cccc(/C=C/c2ccccc2F)c1`, 8.5.

These data come from ChEMBL document CHEMBL3877327, “Activation of anti-oxidant Nrf2 signaling by substituted trans stilbenes” (Bioorg Med Chem, 2017).
